System: gastric ulcer
Assay: Glacial acetic acid-induced gastric ulcer in SD rats
Assay type: in vivo
Settings: 1.3 mg/kg, control group 2 continuous administration 15 d, treatment groups 10 d, three times a day
Method: 50 SD rats are used, made to starve for 24 h before testing. The abdominal cavity is opened under ether anesthesia, a glass tube with the inner diameter of 5 mm and the length of 30 mm is vertically placed on the surface of serosa of the gastric body and 0.2 ml of glacial acetic acid is added into the tube cavity. The glacial acetic acid is dipped out with a cotton swab after 5 min, and the surgical incision is sutured. Normal diet is permitted after the surgery, and animals are randomly divided into 5 groups on the next day: a control group 1 (distilled water), a control group 2 (pantoprazole sodium for injection), with continuous administration for 15 d, a treatment group 1 (embodiment 1), a treatment group 2 (embodiment 2) and a treatment group 3 (embodiment 3); and continuous administration is performed for 10 d, three times a day. The stomach is taken out by anatomy, fixed with formaldehyde, cut open along the greater curvature of the stomach and flat spread on a glass plate, and the transverse diameter d1 and the vertical diameter d2 of an ulcer are measured. The area of the ulcer S (mm2) is calculated according to a formula S=π×(d1/2)×(d2/2) to serve as an ulcer index, and ulcer healing rate and ulcer inhibition rate are calculated.

With `COc1ccnc(C[S+]([O-])c2nc3cc(OC(F)F)ccc3[n-]2)c1OC.[Na+]` (stereo not shown) [Control group 2, 5-difluoromethoxy-2-[(3,4-dimethoxy-2-pyridinyl)methyl]sulfinyl-1H-benzimidazole] the Healing rate was 90%, the “Number of healed animals” value was 9 and the “Ulcer index (x ± s), ulcer area S=π×(d1/2)×(d2/2)” value was 6.3 ± 6.1 mm2. For the same compound, the Ulcer inhibition rate was 65.1%.

Source: patent US20160263094A1, “Pantoprazole Sodium Composition Lyophilized Powder for Injection” (priority 2013, published 2016)
